Like-named read-outs stand apart in the source and are kept apart here.
Columns and labels:
Artemia salina = Artemia salina lethal toxicity assay; format: in vivo; settings: Artemia salina nauplii; quality control
Description: Artemia salina was used for in vivo general toxicity assessment of the promising hybrids IVb, IVd, and IIf; the results are shown in Table 4 and Figure 7. K2Cr2O7 was used as a control. Hybrid IVd presented the lowest toxicity.
The ARTOXKIT M protocol was used. The percentage of dyed nauplii of Artemia salina, grown in the presence of variable concentrations of the inhibitor compounds, was measured to determine the LC50 values. A test with K2Cr2O7 was used for quality control.

eeAChE = molecular target: T1, eeAChE (Electrophorus electricus, UniProt O42275); assay: Ellman cholinesterase inhibitory assay, eeAChE screening; format: biochemical; settings: compound 100 µM; substrate 3 mM
T1 construct: catalogue number not given
Description: (§1) Firstly, the inhibitory activity of the quercetin-1,2,3-triazole hybrids I–IV was screened in vitro on eeAChE and eqBuChE at a concentration of 100 μM (these enzymes are considered as models of the human isoform). The ChE inhibitory activity of all compounds was evaluated using the method of Ellman.
(§2) The inhibitory activities of title compounds against commercially available cholinesterases (eeAChE) (Electrophorus electricus, Type V-S), eqBuChE (equine serum), were conducted using minor modifications of Ellman’s assay. Nine different concentrations ([…], 37.5, 75, 150, and 300 μM in H2O:DMSO (50:50)) of each test compound were used to determine the enzyme-inhibition activity. Briefly, 55 μL of 50 mM Tris-HCl buffer at pH 8, 25 μL of eqBuChE (0.03 U/mL), 20 μL of the test or standard compounds, and 125 μL of DTNB (0.8 mM) were incubated in 96-well plates at 37 °C for 15 min. Further, 25 μL of the substrate, BTCI (0.8 mM), was added, and the solution was incubated for additional 15 min. Finally, the absorbance was measured at 412 nm wavelength using a Microplate Spectrophotometry (TriStar® S LB 942 model instrument). The IC50 values were determined from the absorbance obtained for various concentrations of the test and the standard compounds. All determinations were performed in triplicate.
(§3) To determine the % of inhibition ([I] = 100 μM), the substrate concentration (acetylthiocholine iodide for AChE; S-butyrylthiocholine iodide for BuChE) was fixed at 3 mM.

eqBuChE = molecular target: T2, eqBuChE (Equus caballus, UniProt P81908); assay: Ellman cholinesterase inhibitory assay, eqBuChE (screening and IC50); format: biochemical; settings: for inhibition at 100 µM: compound 100 µM, substrate 3 mM
T2 construct: equine serum butyrylcholinesterase (eqBuChE); purchased Sigma-Aldrich (lyophilized powder, 10.9 U/mg); host or cells: equine serum
Description: as §1, §2, §3

[1] = DPPH radical scavenging antioxidant assay; settings: 100 μg/mL
Description: To assess the antioxidant activity of hybrids IVa–e, IIf and quercetin, the 2,2-diphenyl-1-[…] (DPPH) radical scavenging colorimetric method was used, which is one of the most widely used methods for determining antioxidant activity. In this method, antioxidants react with DPPH (which has a strong violet color) and convert it into yellow diphenylpicrylhydrazine. Compounds were assayed in the range of concentrations from 3 to 200 μg/mL. Ascorbic acid was used as positive control. […] Another piece of evidence is the similarity between the % inhibition values of hybrids IVa,b and IVd,e and quercetin.
The colorimetric DPPH assay was carried out as described in [33]. […] In brief, 30 μL of a test compound (in MeOH) was mixed with 200 μL of DPPH (100 μM in methanol) in a 96-well plate in triplicate. After 30 min incubation at room temperature in the absence of light, the absorbances were measured at 517 nm using Microplate Spectrophotometry (TriStar® S LB 942 model instrument). The free radical scavenging activity results are expressed as a percentage of DPPH inhibition according to the following formula:
% of Inhibition = 100[(A(Blank) − A(sample))/A(blank)], where A(blank) consists of methanol (30 μL) mixed with DPPH (200 μL) absorbance, and A(sample) is the absorbance value for the added sample concentration compound mixed with DPPH. Ascorbic acid was used as a positive control.

MCF-7 cells = assay: Protective assay against hydrogen peroxide-induced oxidative stress in MCF-7 cells; format: cell-based, Human; settings: 100 µM H2O2, 2 h
Description: Given the importance of oxidative stress-induced apoptosis of neuronal cells in AD, we present here a study to investigate the effect of quercetin-1,2,3-triazole hybrids on H2O2-induced oxidative damage in cultured MCF-7 cells, used as a human cell model. Viability was assessed with the WST-1 test in the absence and in the presence of an oxidative stressor (10^−4 M H2O2).
MCF-7 (Human breast adenocarcinoma (MERCK—# 86012803-DNA-5UG), Database Name: ECACC collection, Accession Numbers: 86012803) was the cell line elected as a cell injury model for the study of the potential protective effect of the butyrylcholinesterase inhibitors (hybrids) against hydrogen peroxide-induced oxidative stress. Cytotoxicity of the hybrids was also evaluated.
The culture medium was subsequently replaced with different final concentrations (6.25–50 μM) of the compounds to be tested. Negative controls were prepared, incubating cells in culture media.
Parallel experiments were performed for cytotoxicity assessment and for protective effect against hydrogen peroxide-induced oxidative stress evaluation. First, 10 μL of PBS was added in the designated wells; second, 10 μL of H2O2 (reaching a final concentration of 100 µM) was added. Following a 2 h incubation period at 37 °C in 5% CO2 atmosphere incubator, cellular viability was measured by adding WST-1 dehydrogenases substrate and incubating for 1 h, and the amount of formazan dye produced was evaluated by measuring the absorbance at 440 nm.

[2] = concentration range 1.2-300 µM, BTCI 0.8 mM, read-out: IC50 values for eqBuChE

T1 sequence (O42275 24-633): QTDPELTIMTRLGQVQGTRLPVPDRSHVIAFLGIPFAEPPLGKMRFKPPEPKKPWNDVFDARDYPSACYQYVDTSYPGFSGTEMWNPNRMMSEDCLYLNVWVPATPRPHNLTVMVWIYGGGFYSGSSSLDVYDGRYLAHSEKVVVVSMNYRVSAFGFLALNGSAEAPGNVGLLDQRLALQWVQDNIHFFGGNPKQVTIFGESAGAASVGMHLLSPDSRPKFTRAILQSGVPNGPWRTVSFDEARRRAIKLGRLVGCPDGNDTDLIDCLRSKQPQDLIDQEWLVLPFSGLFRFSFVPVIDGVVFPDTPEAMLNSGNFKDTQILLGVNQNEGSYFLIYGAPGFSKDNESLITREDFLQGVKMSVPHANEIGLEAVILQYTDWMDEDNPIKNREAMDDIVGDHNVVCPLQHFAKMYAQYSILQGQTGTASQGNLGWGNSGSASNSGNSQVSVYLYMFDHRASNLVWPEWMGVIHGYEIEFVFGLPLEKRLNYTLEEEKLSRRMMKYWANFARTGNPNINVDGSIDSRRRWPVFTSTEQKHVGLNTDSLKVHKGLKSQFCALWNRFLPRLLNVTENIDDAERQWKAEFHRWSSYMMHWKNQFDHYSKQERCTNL
T2 sequence (P81908 whole entry): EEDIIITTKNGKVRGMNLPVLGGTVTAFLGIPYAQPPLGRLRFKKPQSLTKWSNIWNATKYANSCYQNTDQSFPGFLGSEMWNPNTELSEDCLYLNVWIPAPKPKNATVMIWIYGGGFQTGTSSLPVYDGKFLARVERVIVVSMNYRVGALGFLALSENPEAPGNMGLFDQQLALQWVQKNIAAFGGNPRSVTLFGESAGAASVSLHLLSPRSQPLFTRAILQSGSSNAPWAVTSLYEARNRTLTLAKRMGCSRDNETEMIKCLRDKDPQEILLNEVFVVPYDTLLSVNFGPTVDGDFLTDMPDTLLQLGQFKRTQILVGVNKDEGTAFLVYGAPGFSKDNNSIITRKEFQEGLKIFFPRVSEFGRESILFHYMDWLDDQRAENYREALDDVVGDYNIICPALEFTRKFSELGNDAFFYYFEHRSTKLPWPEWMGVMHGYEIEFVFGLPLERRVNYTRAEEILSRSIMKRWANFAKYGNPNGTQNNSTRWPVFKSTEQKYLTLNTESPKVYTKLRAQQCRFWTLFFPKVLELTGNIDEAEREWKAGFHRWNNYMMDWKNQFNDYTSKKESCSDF

| SMILES | LC50 (Artemia salina) [µg/mL] | inhibition at 100 µM (eeAChE) [%] | inhibition at 100 µM (eqBuChE) [%] | IC50 (eqBuChE; [2]) [µM] | DPPH antioxidant activity [1] | cellular antioxidant protection against H2O2 (MCF-7 cells) | IC50 (eqBuChE) [µM] |
| --- | --- | --- | --- | --- | --- | --- | --- |
| [K+].[K+].[O]=[Cr](=[O])([O-])[O][Cr](=[O])(=[O])[O-] [Hybrid K2Cr2O7, K2Cr2O7, reference compound] | 22.7 | – | – | – | – | – | – |
| O=c1c(OCCCCn2cc(-c3ccccc3)nn2)c(-c2ccc(OCc3ccccc3)c(OCc3ccccc3)c2)oc2cc(OCc3ccccc3)cc(OCc3ccccc3)c12 [IIIa, 5,7-Bis(benzyloxy)-2-(3,4-bis(benzyloxy)phenyl)-3-(4-(4-phenyl-1H-1,2,3-triazol-1-yl)butoxy)-4H-chromen-4-one] | – | 40.6 | 46.9 | – | – | – | – |
| O=c1c(OCCCCn2cc(C3(O)CCCC3)nn2)c(-c2ccc(OCc3ccccc3)c(OCc3ccccc3)c2)oc2cc(OCc3ccccc3)cc(OCc3ccccc3)c12 [IIIc, 5,7-Bis(benzyloxy)-2-(3,4-bis(benzyloxy)phenyl)-3-(4-(4-(1-hydroxycyclopentyl)-1H-1,2,3-triazol-1-yl)butoxy)-4H-chromen-4-one] | – | 17.2 | 26.9 | – | – | – | – |
| CC(C)(O)c1cn(CCCCOc2c(-c3ccc(OCc4ccccc4)c(OCc4ccccc4)c3)oc3cc(OCc4ccccc4)cc(OCc4ccccc4)c3c2=O)nn1 [IIId, 5,7-Bis(benzyloxy)-2-(3,4-bis(benzyloxy)phenyl)-3-(4-(4-(2-hydroxypropan-2-yl)-1H-1,2,3-triazol-1-yl)butoxy)-4H-chromen-4-one] | – | 15.1 | 27.3 | – | – | – | – |
| O=C1C(=O)N(Cc2cn(CCCCOc3c(-c4ccc(OCc5ccccc5)c(OCc5ccccc5)c4)oc4cc(OCc5ccccc5)cc(OCc5ccccc5)c4c3=O)nn2)c2ccccc21 [IIIf, 1-((1-(4-((5,7-Bis(benzyloxy)-2-(3,4-bis(benzyloxy)phenyl)-4-oxo-4H-chromen-3-yl)oxy)butyl)-1H-1,2,3-triazol-4-yl)methyl)indoline-2,3-dione] | – | 0 | 34.5 | – | – | – | – |
| COc1cc(OC)c2c(=O)c(OCCCCn3cc(-c4ccccc4)nn3)c(-c3ccc(OC)c(OC)c3)oc2c1 [IIa, 2-(3,4-Dimethoxyphenyl)-5,7-dimethoxy-3-(4-(4-phenyl-1H-1,2,3-triazol-1-yl)butoxy)-4H-chromen-4-one] | – | 7.75 | 55.3 | > 300 | – | – | – |
| COc1cc(OC)c2c(=O)c(OCCCCn3cc(C4CC4)nn3)c(-c3ccc(OC)c(OC)c3)oc2c1 [IIb, 2-(3,4-Dimethoxyphenyl)-3-(4-(4-cyclopropyl-1H-1,2,3-triazol-1-yl)butoxy)-5,7-dimethoxy-4H-chromen-4-one] | – | 0 | 54.4 | > 300 | – | – | – |
| COc1cc(OC)c2c(=O)c(OCCCCn3cc(C4(O)CCCC4)nn3)c(-c3ccc(OC)c(OC)c3)oc2c1 [IIc, 2-(3,4-Dimethoxyphenyl)-3-(4-(4-(1-hydroxycyclopentyl)-1H-1,2,3-triazol-1-yl)butoxy)-5,7-dimethoxy-4H-chromen-4-one] | – | 0 | 69.6 | > 300 | – | – | – |
| COc1cc(OC)c2c(=O)c(OCCCCn3cc(C(C)(C)O)nn3)c(-c3ccc(OC)c(OC)c3)oc2c1 [IId, 2-(3,4-Dimethoxyphenyl)-3-(4-(4-(2-hydroxypropan-2-yl)-1H-1,2,3-triazol-1-yl)butoxy)-5,7-dimethoxy-4H-chromen-4-one] | – | 0 | 60.6 | > 300 | – | – | – |
| COc1cc(OC)c2c(=O)c(OCCCCn3cc(COc4cc(C)ccc4C(C)C)nn3)c(-c3ccc(OC)c(OC)c3)oc2c1 [IIe, 2-(3,4-Dimethoxyphenyl)-3-(4-(4-((2-isopropyl-5-methylphenoxy)methyl)-1H-1,2,3-triazol-1-yl)butoxy)-5,7-dimethoxy-4H-chromen-4-one] | – | 4.13 | 81.7 | 26.6 | – | – | – |
| COc1cc(OC)c2c(=O)c(OCCCCn3cc(CO)nn3)c(-c3ccc(OC)c(OC)c3)oc2c1 [IIg, 2-(3,4-Dimethoxyphenyl)-3-(4-(4-(hydroxymethyl)-1H-1,2,3-triazol-1-yl)butoxy)-5,7-dimethoxy-4H-chromen-4-one] | – | 0 | 53.8 | > 300 | – | – | – |
| CCCc1cn(CCCCOc2c(-c3ccc(OC)c(OC)c3)oc3cc(OC)cc(OC)c3c2=O)nn1 [IIh, 2-(3,4-Dimethoxyphenyl)-5,7-dimethoxy-3-(4-(4-propyl-1H-1,2,3-triazol-1-yl)butoxy)-4H-chromen-4-one] | – | 38.6 | 7.97 | > 300 | – | – | – |
| COc1cc(OC)c2c(=O)c(OCCCCn3cc(C(C)(C)N)nn3)c(-c3ccc(OC)c(OC)c3)oc2c1 [IIi, 3-(4-(4-(2-Aminopropan-2-yl)-1H-1,2,3-triazol-1-yl)butoxy)-2-(3,4-dimethoxyphenyl)-5,7-dimethoxy-4H-chromen-4-one] | – | 0 | 74.4 | 70.2 | – | – | – |
| O=c1c(OCCCCn2cc(C3(O)CCCC3)nn2)c(-c2ccc(O)c(O)c2)oc2cc(O)cc(O)c12 [IVc, 2-(3,4-Dihydroxyphenyl)-5,7-dihydroxy-3-(4-(4-(1-hydroxycyclopentyl)-1H-1,2,3-triazol-1-yl)butoxy)-4H-chromen-4-one] | – | 21.6 | 69.9 | 65.7 | – | – | – |
| Cc1ccc(C(C)C)c(OCc2cn(CCCCOc3c(-c4ccc(O)c(O)c4)oc4cc(O)cc(O)c4c3=O)nn2)c1 [IVe, 2-(3,4-Dihydroxyphenyl)-5,7-dihydroxy-3-(4-(4-((2-isopropyl-5-methylphenoxy)methyl)-1H-1,2,3-triazol-1-yl)butoxy)-4H-chromen-4-one] | – | 29.1 | 63.4 | > 150 | potent antioxidant activity | – | – |
| COc1cc(OC)c2c(=O)c(OCc3cn(Cc4ccccc4)nn3)c(-c3ccc(OC)c(OC)c3)oc2c1 [Ia, 3-((1-Benzyl-1H-1,2,3-triazol-4-yl)methoxy)-2-(3,4-dimethoxyphenyl)-5,7-dimethoxy-4H-chromen-4-one] | – | 0 | 54.4 | – | – | – | – |
| COc1cc(OC)c2c(=O)c(OCc3cn(Cc4cccc(Cl)c4)nn3)c(-c3ccc(OC)c(OC)c3)oc2c1 [Ib, 3-((1-(3-Chlorobenzyl)-1H-1,2,3-triazol-4-yl)methoxy)-2-(3,4-dimethoxyphenyl)-5,7-dimethoxy-4H-chromen-4-one] | – | 0 | 63.3 | – | – | – | – |
| O=c1c(O)c(-c2ccc(O)c(O)c2)oc2cc(O)cc(O)c12 [Quercetin] | – | 8.18 | 100 | – | – | low capacity in cellular protection | 18.2 |
